Test results from article PMC8066339, “Optimization of 2-Acylaminocycloalkylthiophene Derivatives for Activity against Staphylococcus aureus RnpA” (Antibiotics, 2021).
≈ marks a conversion by molar mass, not a printed value. Where “and” joins values, the source holds several entries; their conditions need not be identical. Equal entries are not always repeated. Entries after “also recorded” stand apart in the source; their conditions may differ. Where two headings read alike, the source gives them in different places.

Tests used:
RNase P (RnpA + rnpB) = biological target: T1, RNase P (RnpA + rnpB) (Staphylococcus aureus, UniProt P0A0H5); assay: In vitro ptRNA^Tyr processing assay with reconstituted RNase P; format: biochemical; conditions: for IC50: in vitro ptRNA^Tyr processing, average of at least two tests, read-out: ptRNA IC50
T1 construct: made in house; host or cells: E. coli BL21 (DE3)
T1 sequence (P0A0H5 1-117): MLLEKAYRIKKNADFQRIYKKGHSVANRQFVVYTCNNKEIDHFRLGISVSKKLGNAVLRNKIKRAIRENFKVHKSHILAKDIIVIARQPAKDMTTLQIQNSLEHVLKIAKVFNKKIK
Method: His-tagged RnpA was purified as previously described. E. coli BL21 (DE3) cells harboring plasmid pEXP5-nt containing a hexahistidine tag fused to the N-terminus of S.aureus RnpA coding region were grown in LB supplemented with 50 µg mL^−1 ampicillin to OD600 = 0.6 and induced with 1mM isopropyl β-D-1-thiogalactopyranoside (IPTG) for three hours to induce protein expression. […] Cells were mechanically lysed by three passes at 18,000 psi through a French Pressure Cell Press (SLM-Aminco; Pittsford, NY, USA) and cell debris was removed by centrifugation at 17,000× g for 10 min at 4 °C. Supernatants were collected, filtered through a 0.2 micron syringe filter, then loaded onto a 5 mL HisPur cobalt column (ThermoFisher Scientific, Waltham, MA, U.S.A.) using the BioRad Maximizer Duo-Flow Medium Pressure Chromatography System. Protein was eluted using an imidazole gradient (80 mM to 500 mM). Fractions were assessed for RnpA presence and purity via SDS-PAGE analysis, Coomassie staining and Western blotting using an anti-His antibody (Invitrogen; Grand Island, NY, USA).
rnpB and RNA substrates (spa, ptRNA^Tyr) for RnpA functional assays, as well as mature tRNA were synthesized in vitro, as previously described. Each gene was PCR amplified using S. aureus UAMS-1 chromosomal DNA as a template and the corresponding oligonucleotide primer pairs, in which the forward primers contained an RNA polymerase T7 promoter sequence. The following primer pairs were used in this study (T7 promoter underlined): T7-rnpB forward—[…] and rnpB reverse—[…]; T7-ptRNA^Tyr forward—[…] and ptRNA^Tyr reverse—TGGTGGAG GGGGGCAGATTC; T7-spa forward—[…] CGACGTCCAG and spa reverse—[…]. Resulting PCR products were analyzed on a 0.8% agarose gel and purified using the Qiagen QIAquick Gel Extraction kit, according to the manufacturer’s instructions. In vitro transcription was performed using the TranscriptAid T7 High Yield Transcription kit (Fermentas; Burlington, ON, Canada) following manufacturer’s instructions. Following in vitro transcription, the RNA was treated with DNase I for 90 min and re-purified using the Qiagen RNeasy Mini kit. RNA was quantified using a NanoDrop2000 spectrophotometer.
S.aureus Rnase P activity assays were performed as previously described. Briefly, ptRNA^Tyr and rnpB RNA was denatured by heating to 95 °C for 5 min then slow cooled to room temperature. RNA species were then combined with 2× low salt buffer (50 mM Tris-HCl pH 8.0, 5 mM MgCl2) and incubated for 5 min at 37 °C. Rnase P was reconstituted by mixing an equal molar ratio of His-RnpA and rnpB for 15 min at 37 °C. […] Then, 5 pmol ptRNA^Tyr was added to each reaction and incubated for an additional 30 min at 37 °C. Reactions were stopped with 2× RNA loading dye (Thermo Scientific) and heating to 65 °C for 10 min. Samples were electrophoresed on a 7M urea/8% polyacrylamide gel then stained with 0.5 µg mL^−1 ethidium bromide. The BioRad EZ Gel Doc imaging system was used to visualize the RNA and relative abundance of mature tRNA^Tyr in the DMSO control or in the samples containing compound and analyzed using BioRad Image Lab densitometry software. The percent inhibitory activity of each compound was calculated using the following equation: (% experimental processing/% processing negative control) × 100.

S. aureus strain UAMS-1 = assay: Minimum inhibitory concentration (MIC) testing, CLSI broth microdilution; format: cell-based, Staphylococcus aureus; conditions: for MIC: Staphylococcus aureus, S. aureus strain UAMS-1, read-out: MIC
Method: Staphylococcus aureus strains UAMS-1 is a well-characterized antibiotic susceptible osteomyelitis clinical isolate (Blevins Infect. Immun 2003). For experiments, UAMS-1 was cultured in Mueller Hinton (MH) broth and processed as described below. Escherichia coli strain BL21 (DE3) was cultured in Luria–Bertani (LB) and supplemented with ampicillin (50 µg ml^−1) where indicated.
Minimum inhibitory concentration (MIC) was performed according to the Clinical and Laboratory Standards Institute (CLSI) guidelines. Briefly, individual wells of a 96-well microtiter plate were inoculated with 10^4 colony forming units (CFU) of S. aureus UAMS-1 containing two-fold increasing concentrations (0 µM to 100 µM) of the indicated antibiotic or putative RnpA inhibitor and grown at 37 °C for 16 h in MH broth. The MIC was defined as the lowest concentration of compound in which there was no visible bacterial growth detected by the unaided eye.

Row | SMILES | IC50 (RNase P (RnpA + rnpB)) [µM] | MIC (S. aureus strain UAMS-1; UAMS1) | Inhibition of in vitro RnpA ptRNA processing (in words) (RNase P (RnpA + rnpB)) | Fold reduction of antimicrobial activity, six-membered vs seven-membered ring matched pair (S. aureus strain UAMS-1; matched molecular pairs) | MIC (S. aureus strain UAMS-1; UAMS1, 16 h) [µM] | Conversion of precursor tRNA to mature tRNA (RNase P (RnpA + rnpB); 0, 50, 250 or 500 µM, urea-PAGE, Figure 2B) | Fold improvement in anti-staphylococcal activity (MIC) over JR1 (S. aureus strain UAMS-1; compared with JR1) [fold]
1 | O=C(Nc1cccc(F)c1)c1c(NC(=O)C(F)(F)F)sc2c1CCCC2 [RNP0013] | 95 | 6.25 µM and 2.4 µg/mL |  |  |  |  | 
2 | O=C(Nc1cccc(C(F)(F)F)c1)c1c(NC(=O)C(F)(F)F)sc2c1CCCC2 [RNP0016] | 52 | 3.12 µM and 1.36 µg/mL | good inhibitory properties |  |  |  | 
3 | O=C(Nc1ccc(F)cc1)c1c(NC(=O)C(F)(F)F)sc2c1CCCCC2 [RNP0009] | 79 | 0.78 µM and 0.32 µg/mL | only inhibited the ptRNA processing function |  |  |  | 
4 | O=C(Nc1ccc(C(F)(F)F)cc1)c1c(NC(=O)C(F)(F)F)sc2c1CCCC2 [RNP0015] | 46 | 0.78 µM and 0.34 µg/mL | greatest inhibitory activity; also recorded: good inhibitory properties | fourfold less potent |  |  | 
5 | O=C(Nc1cccc(F)c1)c1c(NC(=O)C(F)(F)F)sc2c1CCCCC2 [RNP0008] | 78 | 0.391 µM and 0.16 µg/mL | only inhibited the ptRNA processing function |  |  |  | 
6 | O=C(Nc1ccc(F)cc1)c1c(NC(=O)C(F)(F)F)sc2c1CCCC2 [RNP0014] | 138 | 6.25 µM and 2.4 µg/mL | weak effects; also recorded: weak or no inhibitory activity |  |  |  | 
7 | Cc1cccc(NC(=O)c2c(NC(=O)C(F)(F)F)sc3c2CCCCC3)c1 [RNP0010] | 70 | 3.12 µM and 1.24 µg/mL | only inhibited the ptRNA processing function |  | 3.21 (≈ 1.27 µg/mL) |  | 
8 | O=C(Nc1cccc(C(F)(F)F)c1)c1c(NC(=O)C(F)(F)F)sc2c1CCCCC2 [RNP0011] | 57 | 0.391 µM and 0.18 µg/mL | good inhibitory properties |  |  |  | 
9 | O=C(Nc1cccc(Cl)c1)c1c(NC(=O)C(F)(F)F)sc2c1CCCCC2 [RNP0007] | 98 | 0.391 µM and 0.16 µg/mL | weakly inhibited |  |  |  | 
10 | O=C(Nc1ccc(C(F)(F)F)cc1)c1c(NC(=O)C(F)(F)F)sc2c1CCCCC2 [RNP0012] | 66 | 0.19 µM and 0.086 µg/mL | good inhibitory properties |  |  | reduced conversion of precursor tRNA to mature tRNA in a dose dependent manner | 6.6
